Legend:
[1] = molecular target: T1, human ERβ (Homo sapiens, UniProt Q92731); experiment: Competition with [3H]-17β-estradiol for binding to ERβ; conditions: ligand binding domain of human ERβ in E. coli crude lysate, 2 nM [3H]-17β-estradiol, 5-15 hours at room temperature
T1 construct: made in house; host or cells: E. coli (crude lysate)
Procedure: Representative examples of the invention were evaluated for their ability to compete with 17β-estradiol for both ERα and ERβ. This test procedure provides the methodology for one to determine whether a particular compound binds to the estrogen receptor (and is therefore “estrogenic”) and whether there is selectivity for ERα or ERβ. […] 17β-estradiol is included as a standard reference for comparison. The procedure used is briefly described below. A crude lysate of E. coli expressing the estrogen receptor ligand binding domains (D, E, & F) of human ERα or ERβ was prepared. Both receptors and compounds were diluted in 1× Dulbecco's PBS (DPBS) supplemented with 1 mM EDTA. Using a high binding masked microtiter plate, 100 uL of receptor (1 uG/well) was combined with 2 nm [^3H]-17β-estradiol and various concentrations of compound. After between 5 and 15 hours at room temperature, the plates were washed with DPBS/1 mM EDTA and bound radioactivity determined by liquid scintillation counting. The IC50 is defined as the concentration of compound that decreases total 17β-estradiol binding by 50%.

[2] = molecular target: T2, human ERα (Homo sapiens, UniProt P03372); experiment: Competition with [3H]-17β-estradiol for binding to ERα; conditions: ligand binding domain of human ERα in E. coli crude lysate, 2 nM [3H]-17β-estradiol, 5-15 hours at room temperature; read-out: ERα (nM) IC50
T2 construct: made in house; host or cells: E. coli (crude lysate)
T2 sequence (P03372 311-547 limits assumed): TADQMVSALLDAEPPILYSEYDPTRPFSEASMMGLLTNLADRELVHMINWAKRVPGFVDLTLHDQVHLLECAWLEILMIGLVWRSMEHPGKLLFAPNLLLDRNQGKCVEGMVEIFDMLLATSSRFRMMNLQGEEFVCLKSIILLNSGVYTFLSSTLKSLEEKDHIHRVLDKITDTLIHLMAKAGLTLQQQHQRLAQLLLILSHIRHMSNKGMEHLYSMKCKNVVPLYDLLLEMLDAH
Procedure: Representative examples of the invention were evaluated for their ability to compete with 17β-estradiol for both ERα and ERβ. This test procedure provides the methodology for one to determine whether a particular compound binds to the estrogen receptor (and is therefore “estrogenic”) and whether there is selectivity for ERα or ERβ. The values are shown in the Table infra and are reported as IC50s. 17β-estradiol is included as a standard reference for comparison. The procedure used is briefly described below. A crude lysate of E. coli expressing the estrogen receptor ligand binding domains (D, E, & F) of human ERα or ERβ was prepared. Both receptors and compounds were diluted in 1× Dulbecco's PBS (DPBS) supplemented with 1 mM EDTA. Using a high binding masked microtiter plate, 100 uL of receptor (1 uG/well) was combined with 2 nm [^3H]-17β-estradiol and various concentrations of compound. After between 5 and 15 hours at room temperature, the plates were washed with DPBS/1 mM EDTA and bound radioactivity determined by liquid scintillation counting. The IC50 is defined as the concentration of compound that decreases total 17β-estradiol binding by 50%.

T1 sequence (Q92731 264-498 limits assumed): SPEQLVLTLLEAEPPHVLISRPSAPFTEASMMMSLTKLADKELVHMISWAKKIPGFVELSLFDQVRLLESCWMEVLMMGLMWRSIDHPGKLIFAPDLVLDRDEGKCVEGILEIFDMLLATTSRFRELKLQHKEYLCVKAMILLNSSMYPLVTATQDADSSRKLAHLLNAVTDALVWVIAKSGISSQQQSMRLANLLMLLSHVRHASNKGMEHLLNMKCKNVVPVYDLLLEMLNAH

melting point | IC50 [1] | IC50 [2] | SMILES
224 to 226 °C | 1 nM | 17 nM | Cc1c2c(cc3ccc(O)cc13)-c1ccc(O)cc1CO2 [Example 21, 7-Methyl-5H-dibenzo[c,g]chromene-3,9-diol]
228 to 231 °C | 10 nM | 263 nM | Oc1ccc2c(c1)COc1c-2cc2ccc(O)cc2c1-c1cccc(C(F)(F)F)c1 [Example 43, 7-(3-Trifluoromethylphenyl)-5H-dibenzo[c,g]chromene-3,9-diol]
171 to 173 °C | 349 nM | 531 nM | OCc1ccccc1-c1c2c(cc3ccc(O)cc13)-c1ccc(O)cc1CO2 [Example 22, 7-[2-(Hydroxymethyl)phenyl]-5H-dibenzo[c,g]chromene-3,9-diol]
245 to 248 °C | 34 nM | 1220 nM | Oc1ccc2c(c1)COc1c-2cc2ccc(O)cc2c1-c1ccc(OC(F)(F)F)cc1 [Example 59, 7-(4-Trifluoromethoxyphenyl)-5H-dibenzo[c,g]chromene-3,9-diol]
245 to 248 °C | 22 nM | 1820 nM | COc1ccc(-c2c3c(cc4ccc(O)cc24)-c2ccc(O)cc2CO3)cc1OC [Example 42, 7-(3,4-Dimethoxyphenyl)-5H-dibenzo[c,g]chromene-3,9-diol]
240 to 242 °C | 1.4 nM | 73 nM | Oc1ccc2c(c1)COc1c-2cc2ccc(O)cc2c1-c1ccccc1F [Example 38, 7-(2-Fluorophenyl)-5H-dibenzo[c,g]chromene-3,9-diol]
185 to 188 °C | 39 nM | 709 nM | Cc1cc(-c2c3c(cc4ccc(O)cc24)-c2ccc(O)cc2CO3)ccc1F [Example 46, 7-(3-Methyl-4-Fluorophenyl)-5H-dibenzo[c,g]chromene-3,9-diol]
193 to 196 °C | 11 nM | 487 nM | Cc1ccccc1-c1c2c(cc3ccc(O)cc13)-c1ccc(O)cc1CO2 [Example 24, 7-(2-Tolyl)-5H-dibenzo[c,g]chromene-3,9-diol]
238 to 240 °C | 28 nM | 655 nM | Cc1ccc(-c2c3c(cc4ccc(O)cc24)-c2ccc(O)cc2CO3)cc1F [Example 41, 7-(3-Fluoro-4-Methylphenyl)-5H-dibenzo[c,g]chromene-3,9-diol]
220 to 223 °C | 17 nM | 434 nM | COc1cccc(-c2c3c(cc4ccc(O)cc24)-c2ccc(O)cc2CO3)c1 [Example 34, 7-(3-Methoxyphenyl)-5H-dibenzo[c,g]chromene-3,9-diol]
216 to 218 °C | 2 nM | 76 nM | Oc1ccc2c(c1)COc1c-2cc2ccc(O)cc2c1-c1ccoc1 [Example 47, 7-(3-Furyl)-5H-dibenzo[c,g]chromene-3,9-diol]
240 to 242 °C | 71 nM | 358 nM | N#CCc1ccc(-c2c3c(cc4ccc(O)cc24)-c2ccc(O)cc2CO3)cc1 [Example 57, 7-(4-Cyanomethylphenyl)-5H-dibenzo[c,g]chromene-3,9-diol]
187 to 189 °C | 0.8 nM | 4 nM | CCCCc1c2c(cc3ccc(O)cc13)-c1ccc(O)cc1CO2 [Example 49, 7-Butyl-5H-dibenzo[c,g]chromene-3,9-diol]
> 250 °C | 34 nM | 2420 nM | COc1cncc(-c2c3c(cc4ccc(O)cc24)-c2ccc(O)cc2CO3)c1 [Example 53, 7-(5-Methoxy-3-Pyridyl)-5H-dibenzo[c,g]chromene-3,9-diol]
212 to 214 °C | 0.53 nM | 21 nM | Oc1ccc2c(c1)COc1cc3c(Cl)c(O)ccc3cc1-2 [Example 6, 8-Chloro-5H-dibenzo[c,g]chromene-3,9-diol]
200 to 203 °C | 9.8 nM | 702 nM | COc1ccc(-c2c3c(cc4ccc(O)cc24)-c2ccc(O)cc2CO3)cc1 [Example 27, 7-(4-Methoxyphenyl)-5H-dibenzo[c,g]chromene-3,9-diol]
159 to 161 °C | 4.1 nM | 152 nM | Oc1ccc2c(c1)COc1c-2cc2ccc(O)cc2c1-c1ccsc1 [Example 31, 7-Thien-3-yl-5H-dibenzo[c,g]chromene-3,9-diol]
158 to 163 °C | 3.5 nM | 146 nM | Oc1ccc2c(c1)COc1c-2cc2ccc(O)cc2c1-c1ccco1 [Example 48, 7-(2-Furyl)-5H-dibenzo[c,g]chromene-3,9-diol]
235 to 237 °C | 6.2 nM | 206 nM | Oc1ccc2c(c1)COc1c-2cc2ccc(O)cc2c1-c1ccc(F)c(F)c1 [Example 36, 7-(3,4-Difluorophenyl)-5H-dibenzo[c,g]chromene-3,9-diol]
225 to 227 °C | 3.3 nM | 93 nM | Oc1ccc2c(c1)COc1c-2cc2ccc(O)cc2c1-c1cccc(F)c1 [Example 32, 7-(3-Fluorophenyl)-5H-dibenzo[c,g]chromene-3,9-diol]

Source: patent publication US7671084B2 (Wyeth, priority 2004, dated 2010)
